# From patent publication US20070066608A1, “Novel indole derivatives with an improved antipsychotic activity” (priority 2003, published 2007)
# Legend:
# [1] = biological target: T1, Human 5HT1A receptor (Homo sapiens, UniProt P08908); test: Binding experiment for 5-HT1A receptor, [3H]8OHDPAT; conditions: membranes of 5HT1A receptor-transfected L929 cells, read-out: pIC50 5HT1A (converted)
# T1 construct: expressed in transfected cells; host or cells: L929 cells (stably transfected)
# T1 sequence (P08908 1-422): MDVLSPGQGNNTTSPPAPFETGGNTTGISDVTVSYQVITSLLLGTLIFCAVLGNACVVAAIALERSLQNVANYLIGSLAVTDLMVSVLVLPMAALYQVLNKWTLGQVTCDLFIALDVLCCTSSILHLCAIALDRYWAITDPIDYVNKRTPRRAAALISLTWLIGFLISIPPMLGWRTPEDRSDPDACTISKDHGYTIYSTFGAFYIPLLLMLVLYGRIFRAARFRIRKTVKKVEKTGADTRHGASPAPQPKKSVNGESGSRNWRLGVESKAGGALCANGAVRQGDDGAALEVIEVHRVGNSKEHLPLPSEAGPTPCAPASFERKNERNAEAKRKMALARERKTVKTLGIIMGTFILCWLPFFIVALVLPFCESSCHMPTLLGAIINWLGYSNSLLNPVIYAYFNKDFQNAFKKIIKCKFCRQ
# Protocol: (§1) The interaction of the compounds of Formula (I) with dopamine-receptors, h5HT-transporter and h5HT1A receptor was assessed in in vitro radioligand binding experiments. In general, a low concentration of a radioligand with a high binding affinity for a particular receptor or transporter is incubated with a sample of a tissue preparation enriched in a particular receptor or transporter or with a preparation of cells expressing cloned human receptors in a buffered medium. During the incubation, the radioligand binds to the receptor or transporter. When equilibrium of binding is reached, the receptor bound radioactivity is separated from the non-bound radioactivity, and the receptor- or transporter-bound activity is counted The interaction of the test compounds with the receptor is assessed in competition binding experiments. Various concentrations of the test compound are added to the incubation mixture containing the receptor- or transporter preparation and the radioligand. The test compound in proportion to its binding affinity and its concentration inhibits binding of the radioligand.
# Human 5HT1A receptor-transfected L929 cells were collected by scraping into ice-cold Tris-HCl buffer (50 mM, pH 7.4). The suspension was centrifuged (23 500×g, 10 min, 4° C.) and pellets stored at −70° C. until required. They were then thawed and briefly homogenised using an Ultra-Turrax T25 homogeniser prior to dilution to an appropriate protein concentration optimised for specific and non-specific binding. [^3H]8OHDPAT (NEN, specific activity 127 Ci/mmol) was diluted in Tris-HCl assay buffer containing CaCl2 (50 mM and 4 mM, respectively; pH 7.7) at a concentration of 5 nmol/L. Prepared radioligand (50 μl) was then incubated (30 min, 37° C.) with membrane preparations from L929 cells stably-transfected with the h5HT1A gene construct (400 μl) and with 50 μl of either the 10% DMSO control, spiroxatrine (10^−6 mol/L final concentration), or compound of interest. Membrane-bound activity was detected by filtration through a Packard Filtermate harvester onto Unifaltemplates, washing with ice-cold Tris-HCI buffer (3×4 ml), followed by drying. Scintillation fluid was added and membranes were counted in a Topcount scintillation counter. % Specific bound and competition binding curves were calculated using S-Plus software (Insightful).
# [2] = biological target: T2, human 5HT transporter (Homo sapiens, UniProt P31645); test: Binding experiment for 5-HT transporter, [3H]Paroxetine; conditions: 5HT transporter-transfected HEK cells, [3H]Paroxetine binding; read-out: pIC50 5HT reuptake inhibition (converted)
# T2 construct: host or cells: HEK cells
# Protocol: as §1
# Frozen human 5HT transporter-transfected HEK cells (Perkin Elmer, Brussels) were thawed and briefly homogenised using an Ultra-Turrax T25 homogeniser prior to dilution to an appropriate protein concentration optimised for specific and non-specific binding. [^3H]Paroxetine (NEN, specific activity 20 Ci/mmol) was diluted in Tris-HCl assay buffer containing NaCl and KCl (50 mM 120 mM and 5 mM, respectively; pH 7.4) at a concentration of 5 nmol/L. Prepared radioligand (25 μl) was then incubated (60 min, 25° C.) with membrane preparations (200 μl) and with 25 μl of either 10% DMSO control, Imipramine (10^−6 mol/L final concentration), or compound of interest Membrane-bound activity was detected by filtration through a Packard Filtermate harvester onto Unifilterplates pre-soaked in 0.1% PEI, washing with ice-cold assay buffer (3×4 ml). Filters were dried prior to addition of scintillation fluid and then counting in a Topcount scintillation counter. % Specific bound and competition binding curves were calculated using S-Plus software (Insightful).
# [3] = biological target: T3, Human Dopamine D3 receptor (Homo sapiens, UniProt P35462); test: Radioligand binding experiment for dopamine D3 receptor (hD3), [125I]Iodosulpride; conditions: membranes of D3 receptor-transfected CHO cells, read-out: pIC50 D3 (converted)
# T3 construct: expressed in transfected cells; host or cells: CHO cells
# Protocol: as §1
# Human Dopamine D3 receptor-transfected CHO cells were collected by scraping into ice-cold Tris-HCl buffer (50 mM, pH 7.4). The suspension was centrifuged (23 500×g, 10 min, 4° C.) and pellets stored at −70° C. until required. They were then thawed and briefly homogenised using an Ultra-Turrax T25 homogeniser prior to dilution to an appropriate protein concentration optimised for specific and non-specific binding. [^125]Iodosulpride (Amersham, specific activity 2000 Ci/mmol) was diluted in Tris-HCl assay buffer containing NaCl, CaCl2, MgCl2, KCl and BSA (50, 120, 2, 1, 5 mM, 0.1% respectively, adjusted to pH 7.7 with HCl) at a concentration of 2 nmol/L. Prepared radioligand (20 μl) was incubated (60 min, RT) and with 20 μl of either the 10% DMSO control, Risperidone (10^−6 mol/L final concentration), or compound of interest, then with membrane preparations (80 μl). Overnight incubation followed after addition of WGA-coated PVT SPA beads (250 μl; Amersham) and membrane-bound counts measured in a Wallac Microbeta. % Specific bound and competition binding curves were calculated using S-Plus software (Insightful).
# T2 sequence (P31645 whole entry): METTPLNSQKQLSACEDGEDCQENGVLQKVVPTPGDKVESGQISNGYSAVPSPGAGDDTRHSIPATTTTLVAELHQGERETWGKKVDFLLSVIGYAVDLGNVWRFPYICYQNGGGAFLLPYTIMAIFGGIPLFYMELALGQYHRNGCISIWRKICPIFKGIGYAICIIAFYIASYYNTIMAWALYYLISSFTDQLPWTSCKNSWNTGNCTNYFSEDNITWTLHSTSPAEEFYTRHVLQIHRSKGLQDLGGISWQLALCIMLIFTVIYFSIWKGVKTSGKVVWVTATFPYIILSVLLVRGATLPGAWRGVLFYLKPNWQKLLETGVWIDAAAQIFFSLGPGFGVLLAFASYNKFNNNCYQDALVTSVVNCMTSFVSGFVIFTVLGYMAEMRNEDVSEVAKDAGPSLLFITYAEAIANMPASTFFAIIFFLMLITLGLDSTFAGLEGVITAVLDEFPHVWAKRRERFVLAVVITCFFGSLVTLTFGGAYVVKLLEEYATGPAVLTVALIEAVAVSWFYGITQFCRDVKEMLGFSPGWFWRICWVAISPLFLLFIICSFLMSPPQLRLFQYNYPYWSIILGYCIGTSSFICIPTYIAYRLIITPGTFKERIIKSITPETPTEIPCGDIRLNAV
# T3 sequence (P35462 whole entry): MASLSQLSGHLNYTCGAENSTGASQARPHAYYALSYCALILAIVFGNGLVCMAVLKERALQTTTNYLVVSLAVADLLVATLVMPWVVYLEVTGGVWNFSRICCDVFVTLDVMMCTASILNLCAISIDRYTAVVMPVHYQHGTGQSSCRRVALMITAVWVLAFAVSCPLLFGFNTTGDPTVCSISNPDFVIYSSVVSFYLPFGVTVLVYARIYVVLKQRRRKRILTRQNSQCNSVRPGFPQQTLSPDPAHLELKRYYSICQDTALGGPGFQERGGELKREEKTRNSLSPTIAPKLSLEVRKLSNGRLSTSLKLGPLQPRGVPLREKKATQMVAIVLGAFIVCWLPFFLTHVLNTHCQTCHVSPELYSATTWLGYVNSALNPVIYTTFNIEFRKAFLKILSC
smiles,measurement,setting,value
Fc1ccc2[nH]cc(C3=CCN(CC4Oc5cccnc5O4)CC3)c2c1 (stereo not drawn) [Compound 7],IC50,[1],398 nM
same,IC50,[2],> 1000 nM
same,IC50,[3],15.8 nM
